Like-named read-outs stand apart in the source and are kept apart here.
Assays:
Type in all cases: cell-based
[1] = system: T47D (PI3Kα H1047R mutant) cells; test: CellTiter-Glo 2.0 luminescent cell viability assay, 72 hours, T47D cells; conditions: T47D (PI3Kα H1047R mutant) cells, CellTiter-Glo, approximately 72 hours, read-out: T47D (H1047R mutant) Viability IC50
Summary of the method: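 Cells seeded at 1000 per well overnight were dosed with a 10-concentration, 1:4 series starting at 10 µM and incubated ~72 h at 37° C. Viability was read by CellTiter-Glo 2.0 luminescence after 30 min at room temperature. IC50 came from four-parameter fits of percent vehicle control.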

[2] = system: T47D (PI3Kα H1047R mutant) cells; test: Inhibition of pAKT formation, alphaLISA SureFire Ultra AKT 1/2/3 (pS473), T47D cells; conditions: Homo sapiens, T47D, T47D (PI3Kα H1047R mutant) cells; inhibition of pAKT (pS473) formation; approximately one hour or 24 hours treatment; read-out: T47D pAKT (H1047R mutant) IC50
Procedure: The ability of a compound of Formula (I) to inhibit the formation of pAKT was measured using alphaLISA Surefire Ultra AKT 1/2/3 (pS473) Assay Kit (#ALSU-PAKT-B50K) was obtained from Perkin Elmer (Waltham, MA).
To prepare assay plates for pAKT alphaLISA assays, cells were trypsinized, resuspended in fresh media, and viable cells were counted utilizing trypan blue exclusion. Prior to seeding, cells were washed with PBS and resuspended in HBSS (Gibco, #14025092). T47D (12,000/w), SKBR3(12,000/w), or MKN1(24,000/w) cells were seeded at 12 μl per well in a solid white flat bottom 384 cell culture plate (Perkin Elmer #6007680).
Immediately after seeding, cells were dosed using an Echo Liquid Handler (Beckman Coulter) with compounds at a […] starting concentration and serially diluted (1:4) for a total of 10 concentrations. […] Cells were incubated with the compounds (solubilized in DMSO) for approximately one hour or 24 hours at 37° C. After one hour (or 24 hours) of treatment, cells were lysed with 3 μl of the 5× lysis buffer (provided and incubated at room temperature for 15 min on a microtiter plate shaker). Once cells were sufficiently lysed, 7.5 μl of the acceptor bead mix (made using the manufacturers recommended dilutions) was added to each well and left on the microtiter plate shaker for 1 min prior to incubating plates at room temperature for one hour, in the absence of light. After one hour of incubation with the acceptor bead mix, 7.5 μl of the donor bead mix (made using the manufacturers recommended dilutions) was added to each well and left on the microtiter plate shaker for 1 min prior to incubating plates at room temperature overnight in the absence of light. Plates were then imaged the following day using a CLARIOstar microplate reader (BMG Labtech, Germany).
Percent of control values were calculated by subtracting the average signal from the positive control (alpelisib) treated wells from all treated wells (including DMSO control wells) and then divided by the average signal from the vehicle DMSO treated control wells. Percent of vehicle control values were plotted as log (inhibitor) vs. response-Variable slope (four parameters) for curve fitting and IC50 values were determined using XLfit.
Key: N.D. =not determined
Inhibition of pAKT in T47D (PI3Kα H1047R mutant) cells by Exemplary Compounds of Formula (I)

[3] = system: SKBR3 (PI3Kα wild type) cells; test: CellTiter-Glo 2.0 luminescent cell viability assay, 72 hours, SKBR3 cells; conditions: SKBR3 (PI3Kα wild type) cells, CellTiter-Glo, approximately 72 hours, read-out: SKBR3 (WT) Viability IC50
Summary of the method: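 Viability measured via CTG luminescence following roughly 72 hours of compound exposure at 37° C. Dosing used a 10 um starting concentration diluted 1:4 over 10 points; percent-of-vehicle data fitted with a variable-slope four-parameter model for IC50.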

Row | Compound | IC50 ([1]; Homo sapiens, T47D, 72 h) [nM] | IC50 [2] [nM] | IC50 ([3]; Homo sapiens, SK-BR-3, 72 h) [nM] | IC50 [1] [nM] | IC50 [3] [nM]
1 | Cc1cc([C@@H](C)Nc2ccccc2C(=O)O)c2nc(N3CCN(c4ccc(C#N)cc4)[C@@H](C)C3)c(C#N)c(=O)n2c1 [Example 10-41, 2-(((R)-1-(3-cyano-2-((S)-4-(4-cyanophenyl)-3-methylpiperazin-1-yl)-7-methyl-4-oxo-4H-pyrido[1,2-a]pyrimidin-9-yl)ethyl)amino)benzoic acid] | 60.2 | 7.18 | > 10000 | – | –
2 | COC1CCN(c2nc3c([C@@H](C)Nc4ccccc4C(=O)O)cc(C)cn3c(=O)c2C)CC1(F)F (stereo partly drawn) [Example 10-116, 2-(((1R)-1-(2-(3,3-difluoro-4-methoxypiperidin-1-yl)-3,7-dimethyl-4-oxo-4H-pyrido[1,2-a]pyrimidin-9-yl)ethyl)amino)benzoic acid] | 100 | 1.58 | > 10000 | – | –
3 | Cc1cc([C@@H](C)Nc2ccc(Cl)nc2C(=O)O)c2nc(NCC3CC3)c(C)c(=O)n2c1 [Example 10-85, (R)-6-chloro-3-((1-(2-((cyclopropylmethyl)amino)-3,7-dimethyl-4-oxo-4H-pyrido[1,2-a]pyrimidin-9-yl)ethyl)amino)picolinic acid] | 79.5 | 2 | > 10000 | – | –
4 | Cc1cc([C@@H](C)Nc2ccccc2C(=O)O)c2nc(N(C)CC3CC3)c(C#N)c(=O)n2c1 [Example 10-80, (R)-2-((1-(3-cyano-2-((cyclopropylmethyl)(methyl)amin0)-7-methyl-4-oxo-4H-pyrido[1,2-a]pyrimidin-9-yl)ethyl)amino)benzoic acid] | 75 | 1.98 | > 10000 | – | –
5 | Cc1cc([C@@H](C)Nc2ccccc2C(=O)O)c2nc(C3CCN(c4ccc(C#N)cc4)CC3)c(C)c(=O)n2c1 [Example 10-120, (R)-2-((1-(2-(1-(4-cyanophenyl)piperidin-4-yl)-3,7-dimethyl-4-oxo-4H-pyrido[1,2-a]pyrimidin-9-yl)ethyl)amino)benzoic acid] | 103 | 2.25 | > 10000 | – | –
6 | Cc1cc([C@@H](C)Nc2ccccc2C(=O)O)c2nc(N3CC[C@H]3CF)c(C#N)c(=O)n2c1 (single isomer, unassigned) [Example 10-54] | 72.2 | 3.36 | > 10000 | – | –
7 | Cc1cc([C@@H](C)Nc2ccc(F)nc2C(=O)O)c2nc(N3Cc4ccccc4C3)c(C)c(=O)n2c1 [Example 10-29, (R)-6-fluoro-3-((1-(2-(isoindolin-2-yl)-3,7-dimethyl-4-oxo-4H-pyrido[1,2-a]pyrimidin-9-yl)ethyl)amino)picolinic acid] | – | 0.54 | – | 53.9 | > 10000
8 | Cc1cc([C@@H](C)Nc2ccccc2C(=O)O)c2nc(N3CCN(c4ccc(F)cc4F)CC3)c(C#N)c(=O)n2c1 [Example 10-86, (R)-2-((1-(3-cyano-2-(4-(2,4-difluorophenyl)piperazin-1-yl)-7-methyl-4-oxo-4H-pyrido[1,2-a]pyrimidin-9-yl)ethyl)amino)benzoic acid] | 80 | 15.5 | > 10000 | – | –
9 | Cc1cc([C@@H](C)Nc2ccccc2C(=O)O)c2nc(N3CC4CC(C3)N4c3ccc(C#N)cc3)c(C#N)c(=O)n2c1 [Example 11-134, 2-(((1R)-1-(3-cyano-2-(6-(4-cyanophenyl)-3,6-diazabicyclo[3.1.1]heptan-3-yl)-7-methyl-4-oxo-4H-pyrido[1,2-a]pyrimidin-9-yl)ethyl)amino)benzoic acid] | 605 | – | > 10000 | – | –

The remaining lines, values ahead:

Row | IC50 ([1]; Homo sapiens, T47D, 72 h) [nM] | IC50 [2] [nM] | IC50 ([3]; Homo sapiens, SK-BR-3, 72 h) [nM] | IC50 [1] [nM] | IC50 [3] [nM] | Compound
10 | 284 | – | > 10000 | – | – | Cc1cc([C@@H](C)Nc2ccccc2C(=O)O)c2nc(N3Cc4ccncc4C3)c(C#N)c(=O)n2c1 [Example 11-286, (R)-2-((1-(3-cyano-2-(1,3-dihydro-2H-pyrrolo[3,4-c]pyridin-2-yl)-7-methyl-4-oxo-4H-pyrido[1,2-a]pyrimidin-9-yl)ethyl)amino)benzoic acid]
11 | > 10000 | – | > 10000 | – | – | CC(=O)N1CCN(c2cc(=O)n3cc(C)cc(C(C)Nc4ccccc4C(=O)O)c3n2)CC1 (centres unmarked) [Example 11-337, 2-((1-(2-(4-acetylpiperazin-1-yl)-7-methyl-4-oxo-4H-pyrido[1,2-a]pyrimidin-9-yl)ethyl)amino)benzoic acid]
12 | 441 | – | > 10000 | – | – | Cc1cc([C@@H](C)Nc2ccccc2C(=O)O)c2nc(N3CCC(C#N)CC3)c(C#N)c(=O)n2c1 [Example 11-72, (R)-2-((1-(3-cyano-2-(4-cyanopiperidin-1-yl)-7-methyl-4-oxo-4H-pyrido[1,2-a]pyrimidin-9-yl)ethyl)amino)benzoic acid]
13 | 162 | – | > 10000 | – | – | Cc1cc([C@@H](C)Nc2ccccc2C(=O)O)c2nc(N3CC(F)(F)C(F)(F)C3)c(C#N)c(=O)n2c1 [Example 11-136, (R)-2-((1-(3-cyano-7-methyl-4-oxo-2-(3,3,4,4-tetrafluoropyrrolidin-1-yl)-4H-pyrido[1,2-a]pyrimidin-9-yl)ethyl)amino)benzoic acid]
14 | – | – | – | 173 | > 10000 | Cc1cc([C@@H](C)Nc2ccccc2C(=O)O)c2nc(N3CCC4(CCOC4)CC3)c(C)c(=O)n2c1 [Example 11-62, (R)-2-((1-(3,7-dimethyl-4-oxo-2-(2-oxa-8-azaspiro[4.5]decan-8-yl)-4H-pyrido[1,2-a]pyrimidin-9-yl)ethyl)amino)benzoic acid]
15 | > 10000 | – | > 10000 | – | – | Cc1cc([C@@H](C)Nc2ccccc2C(=O)O)c2nc(N3CCNC(=O)C3)c(C#N)c(=O)n2c1 [Example 11-284, (R)-2-((1-(3-cyano-7-methyl-4-oxo-2-(3-oxopiperazin-1-yl)-4H-pyrido[1,2-a]pyrimidin-9-yl)ethyl)amino)benzoic acid]
16 | 117 | – | > 10000 | – | – | Cc1cc([C@@H](C)Nc2ccccc2C(=O)O)c2nc(N3CCC4(CC3)CC4)c(C#N)c(=O)n2c1 [Example 11-220, (R)-2-((1-(3-cyano-7-methyl-4-oxo-2-(6-azaspiro[2.5]octan-6-yl)-4H-pyrido[1,2-a]pyrimidin-9-yl)ethyl)amino)benzoic acid]
17 | > 10000 | – | > 10000 | – | – | Cc1cc(C(C)Nc2ccncc2C(=O)O)c2nc(N3Cc4ccccc4C3)c(C)c(=O)n2c1 (centres unmarked) [Example 11-350, 4-((1-(2-(isoindolin-2-yl)-3,7-dimethyl-4-oxo-4H-pyrido[1,2-a]pyrimidin-9-yl)ethyl)amino)nicotinic acid]
18 | 132 | – | > 10000 | – | – | Cc1cc([C@@H](C)Nc2ccc(Cl)nc2C(=O)O)c2nc(NCC3CC3)c(C#N)c(=O)n2c1 [Example 11-206, (R)-6-chloro-3-((1-(3-cyano-2-((cyclopropylmethyl)amino)-7-methyl-4-oxo-4H-pyrido[1,2-a]pyrimidin-9-yl)ethyl)amino)picolinic acid]
19 | 126 | – | > 10000 | – | – | Cc1cc([C@@H](C)Nc2ccccc2C(=O)O)c2nc(N3CC4CC4C3)c(C#N)c(=O)n2c1 (stereo partly drawn) [Example 11-223, 2-(((1R)-1-(2-(3-azabicyclo[3.1.0]hexan-3-yl)-3-cyano-7-methyl-4-oxo-4H-pyrido[1,2-a]pyrimidin-9-yl)ethyl)amino)benzoic acid]
20 | > 10000 | – | > 10000 | – | – | Cc1cc([C@@H](C)Nc2ccccc2C(=O)O)c2nc(N3CCC4(CCO4)C3)c(C#N)c(=O)n2c1 (stereo partly drawn) [Example 11-285, 2-(((1R)-1-(3-cyano-7-methyl-4-oxo-2-(1-oxa-6-azaspiro[3.4]octan-6-yl)-4H-pyrido[1,2-a]pyrimidin-9-yl)ethyl)amino)benzoic acid]
21 | 74.7 | – | > 10000 | – | – | Cc1cc(C(C)Nc2ccc(F)nc2C(=O)O)c2nc(N3Cc4ccccc4C3)c(C)c(=O)n2c1 (centres unmarked) [Example 11-352, 6-fluoro-3-((1-(2-(isoindolin-2-yl)-3,7-dimethyl-4-oxo-4H-pyrido[1,2-a]pyrimidin-9-yl)ethyl)amino)picolinic acid]

— patent US20260078120A1, “SUBSTITUTED PYRIDOPYRIMIDINONES” (MIRATI THERAPEUTICS, INC., priority 2022, published 2026)
